From patent US11492362B1, “Pyridine derivatives for the treatment of hyperproliferative diseases” (King Abdulaziz University, priority 2022, dated 2022)
Values after ≈ are worked out from the molar mass of the structure shown. One block for each molecule: values may come before it.

Assays:
[1] = system: HL-60 (leukemia) cell lines; assay: In vitro cytotoxicity, MTT assay; type: cell-based; conditions: Homo sapiens, 72 h; HL-60, MTT, 3 days
Description: Cells suspended in medium (2×10^4 cells/mL) were plated in 96-well culture plates and incubated at 37° C. in a 5% CO2 incubator. After 12 h, the test sample (2 μL) was added to the cells (2×10^4) in 96-well plates and cultured at 37° C. for 3 days. The cultured cells were mixed with 20 μL of MTT solution and incubated for 4 h at 37° C. The supernatant was carefully removed from each well and 100 μL of DMSO was added to each well to dissolve the formazan crystals which were formed by the cellular reduction of MTT. After mixing with a mechanical plate mixer, the absorbance of each well was measured by a microplate reader using a test wavelength of 570 nm. The results were expressed as the IC50 (μM), which induces a 50% inhibition of cell growth of the treated cells when compared to the growth of control cells. Each experiment was performed at least 3 times. There was a good reproducibility between the replicate wells with standard error [46].
In vitro cytotoxicity of the synthesized compounds 4, 6, and 7 was determined using the MTT assay against HL-60 (leukemia) cell lines. Doxorubicin (Doxo) one of the most efficient anticancer agentd was utilized as a reference compound in this study.

Leukemia HL-60 cell line = assay: Cell cycle analysis, PI staining and DNA flow cytometry; type: cell-based, human; conditions: HL-60, compound at its IC50 concentration
Description: (§1) For cell cycle analysis, cell pellets were fixed with 70% ethanol on ice for 15 min and collected again. The collected pellets were incubated with propidium iodide (PI) staining solution ([…], 0.1 mg/mL RNaseA, 0.05% Triton X-100) at room temperature for 1 hour and analyzed by Gallios® flow cytometer (Beckman Coulter, Brea, Calif., USA). Apoptosis detection was performed by FITC Annexin V/PI commercial kit (Becton Dickenson, Franklin Lakes, N.J., USA) following the manufacturer's protocol. The samples were analyzed by fluorescence-activated cell sorting (FACS) with a Gallios® flow cytometer (Beckman Coulter, Brea, Calif., USA) within 1 h after staining. Data were analyzed using Kaluzav® 1.2 (Beckman Coulter).
Cell cycle analysis was assessed in Leukemia HL-60 cell line after staining the nuclei with propidium iodide (PI) followed by DNA flow cytometry analysis.

Leukemia HL-60 cells = assay: Annexin V-FITC/PI apoptosis detection; type: cell-based, human; conditions: HL-60, Annexin V-FITC/PI
Description: as §1
Moreover, compound 4 increased the percentage of late apoptotic cells by 43.07-more than untreated control.

[2] = system: caspase 3/7 in Leukemia HL-60 cells; assay: Activated caspase 3/7 assay; type: cell-based, human; conditions: HL-60, IC50 concentration, 24 h, flow cytometry; untreated control 0.54%
Description: Activities of caspases-3 and -7 were measured using DRG Caspase-3 (human) ELISA (EIA-4860) kit (DRG International Inc., USA), Invitrogen. Caspase-7 (Active) (human) ELISA kit, Catalog #KHO1091 (96 tests) (Invitrogen Corporation, USA) according to the manufacturer's instructions.
The activation of caspase 3/7 was determined in compound 4 treated Leukemia HL-60 cells at IC50 concentration using green flow cytometry assay for 24 h.

HL-60 = assay: Confluency analysis; type: cell-based, human; conditions: HL-60, 50 μg/mL

Structure (SMILES): c1cc(-c2ccn3cnnc3n2)nc(-c2ccn3cnnc3n2)c1 [Compound 4, 2,6-bis([1,2,4]triazolo[4,3-a]pyrimidin-7-yl)pyridine]
- IC50 [1]: 3.28 ± 0.13 µg/mL (≈ 10.4 µM)
- percentage of cells at pre-G1 peak (Leukemia HL-60 cell line; control 1.42%): 19.32%
- cell percentage in the G2/M phase (Leukemia HL-60 cell line; untreated control 16.80%): 51.84%
- cell survival percentage in comparison with untreated control (Leukemia HL-60 cells): sharp decrease
- increase of percentage of early apoptotic cells versus untreated control (Leukemia HL-60 cells): 8.14 fold
- increase of percentage of late apoptotic cells versus untreated control (Leukemia HL-60 cells): 43.07
- level of caspase 3/7 percentage [2]: 10.04%
- cell morphology in the image (HL-60): round, high-contrast objects

Structure (SMILES): COc1cccc2c1C(=O)c1c(O)c3c(c(O)c1C2=O)C[C@@](O)(C(=O)CO)C[C@@H]3O[C@H]1C[C@H](N)[C@H](O)[C@H](C)O1 [Dox, Doxorubicin, reference compound]
- IC50 [1]: 2.2 ± 0.08 µg/mL (≈ 4.05 µM)

Structure (SMILES): N#Cc1c(N/C=C\C(=O)c2cccc(C(=O)/C=C\Nc3sc4c(c3C#N)CCCC4)n2)sc2c1CCCC2 [Compound 7, 2,2′-(((1Z,1′Z)-pyridine-2,6-diylbis(3-oxoprop-1-ene-3,1-diyl))bis(azanediyl))bis(4,5,6,7-tetrahydrobenzo[b]thiophene-3-carbonitrile)]
- IC50 [1]: 28.5 ± 1.56 µg/mL (≈ 52.9 µM)

- melting point: 236.4 to 237.2 °C
Structure (SMILES): CN(C)C=CC(=O)c1cccc(C(=O)C=CN(C)C)n1 [Compound 2, 2,6-Bis(3-dimethylamino-1-oxoprop-2-en-yl)pyridine]

Structure (SMILES): CN(C)/C=C/C(=O)c1cccc(C(=O)/C=C\Nc2sc3c(c2C#N)CCCC3)n1 [Compound 6, 2-(((Z)-3-(6-((E)-3-(dimethylamino)acryloyl)pyridin-2-yl)-3-oxoprop-1-en-1-yl)amino)-4,5,6,7-tetrahydrobenzo[b]thiophene-3-carbonitrile]
- IC50 [1]: 3.66 ± 0.11 µg/mL (≈ 9 µM)
